In patent publication US7541020B2, “Aminoalkyl glucosaminide phosphate compounds and their use as adjuvants and immunoeffectors” (priority 1997, dated 2009):
“And” between values parts separate entries of the source, which are not always exact repeats. Identical values can stand only once. Like-named read-outs stand apart in the source and are kept apart here.

Columns and labels:
influenza A/HK/68 [1] = conditions: mouse, in vivo
tetanus toxoid [2] = conditions: mouse, in vivo
[3] = system: hepatitis B surface antigen (HBsAg); assay: Serum anti-HBsAg antibody titers after intranasal HBsAg + AGP-AF (ELISA); format: in vivo, BALB/c mice; conditions: for Anti HBsAg Titer^−1 IgG1 / Anti HBsAg Titer^−1 IgG2a: K = 10^3
influenza A/HK/68 [4] = conditions: mouse, in vivo; remark: listed apart in the source
[5] = system: hepatitis B surface antigen (HBsAg); assay: Vaginal wash anti-HBsAg antibody after intranasal HBsAg + AGP-AF; format: in vivo, BALB/c mice; conditions: 10 days after the booster immunization; intranasal HBsAg + 10 μg AGP-AF
Source text: Vaginal samples were collected 10 days after the booster immunization and assayed for anti-HBsAg antibody.

[6] = system: Hepatitis B surface antigen; assay: Randomized controlled clinical study of AgB/RC-210-04 versus AgB: seroprotection, seroconversion, anti-HBsAg titers; format: in vivo, human; conditions: healthy adults; RC-210-04 added to AgB
[7] = system: hepatitis B surface antigen (HBsAg); assay: Anti-HBsAg antibody titer with AGP-SE (ELISA plates coated with HBsAg or p72 peptide); conditions: sera day 28 post 2°, 25 μg AGP-SE; for Anti-HBsAg Titer^−1 HBsAg IgG1 / Anti-HBsAg Titer^−1 HBsAg IgG2a: ELISA plates coated with HBsAg; for Anti-HBsAg Titer^−1 p72-Peptide IgG1 / Anti-HBsAg Titer^−1 p72-Peptide IgG2a: ELISA plates coated with p72 peptide
[8] = system: hepatitis B surface antigen (HBsAg); assay: Cytotoxic T-lymphocyte response to HBsAg with AGP in stable emulsion (AGP-SE); conditions: s.c. 2.0 μg HBsAg + 25 μg AGP/SE
ovalbumin = assay: Stimulation of antiovalbumin antibody production; format: in vivo, BDF1 female mice; conditions: 50 μg AGP + 50 μg ovalbumin; second immunization day 21; bled 14 days after second injection
Protocol: BDF1 female mice (8 per group) were immunized with 0.2 ml of emulsions containing 50 μg of the AGPs +50 μg of ovalbumin. A second immunization was administered 21 days post primary. Each mouse was bled 14 days after the second injection.

influenza A/HK/68 [9] = system: influenza A/HK/68; set-up: species or system ICR mice; conditions: mouse, in vivo
influenza A/HK/68 [10] = format: in vivo, BALB/c mice; conditions: mouse, in vivo
tetanus toxoid [11] = conditions: mouse, in vivo, sc
E.G7 (OVA) cells = conditions: s.c. 25 μg OVA in AGP preparation, spleen cells 21 days later
[12] = system: hepatitis B surface antigen (HBsAg); conditions: for % Cytotoxicity (d16, post 2°): HBsAg + 10 μg AGP-AF intranasally; for % Cytotoxicity (d8, post 3°): intranasal HBsAg + 10 μg AGP-AF
[13] = Fever response in rabbits (pyrogenicity); format: in vivo; conditions: 10 ug/kg; cumulative rise ≥1.5 degree in three rabbits is considered pyrogenic
Protocol: The AGP compounds were also evaluated for their tendency to induce a fever response in rabbits. Each compound was formulated in 10% (v/v) ethanol/water solution at 100 mg/ml, then diluted with D5W to the desired concentration. The material was injected at 3 ml/kg body weight into 3 rabbits. The rise in core temperature of the rabbits was recorded.

[14] = day 22 post 2°, HBsAg + 10 μg AGP-AF intranasally
[15] = serum, day 21 post 3°, intranasal HBsAg + 10 μg AGP-AF

Substance: 2-[(R)-3-Hexanoyloxytetradecanoylamino]ethyl2-Deoxy-4-O-phosphono-3-O-[(R)-3-hexanoyloxytetradecanoyl]-2-[(R)-3-hexanoyloxytetradecanoylamino]-α-D-glucopyranoside Triethylammonium Salt [B31]
- Anti-influenza serum titers IgG (influenza A/HK/68 [1]): 3200
- Anti-influenza serum titers IgG1 (influenza A/HK/68 [1]): 1600
- Anti-influenza serum titers IgG2a (influenza A/HK/68 [1]): 400
- Anti-influenza serum titers IgG2b (influenza A/HK/68 [1]): 1600
- Protection (influenza A/HK/68 [1]): 70

Substance: 2-[(R)-3-Tetradecanoyloxytetradecanoylamino]ethyl 2-Deoxy-4-O-phosphono-3-O-[(R)-3-tetradecanoyoxytetradecanoyl]-2-[(R)-3-tetradecanoyoxytetradecanoylamino]-β-D-glucopyranoside Triethylammonium Salt [B19]
- Anti-Tetanus Toxoid Titer^−1 Fecal Extract IgA (tetanus toxoid [2]): 3200 and 6400
- Anti-Tetanus Toxoid Titer^−1 Fecal Extract IgG (tetanus toxoid [2]): 25
- Anti-Tetanus Toxoid Titer^−1 Serum Pools IgG1 (tetanus toxoid [2]): 2M and 4M
- Anti-Tetanus Toxoid Titer^−1 Vaginal Wash IgA (tetanus toxoid [2]): 1600 and 3200
- Anti-Tetanus Toxoid Titer^−1 Vaginal Wash IgG (tetanus toxoid [2]): 200 and 400
- Anti HBsAg Titer^−1 IgA [3, 14]: 1,600
- Anti HBsAg Titer^−1 IgG1 [3, 14]: 500K
- Anti HBsAg Titer^−1 IgG2a [3, 14]: 64K
- Anti HBsAg Titer^−1 IgG1 [3, 15]: 2000K
- Anti HBsAg Titer^−1 IgG2a [3, 15]: 500K
- Anti HBsAg Titer^−1 IgA [3, 15]: 12,800
- Percent Survival (influenza A/HK/68 [4]): 50%
- Titer−1 IgG1 (influenza A/HK/68 [4]): 100
- Titer−1 IgG2a (influenza A/HK/68 [4]): 800
- Titer−1 IgG2b (influenza A/HK/68 [4]): 6400
- Titer−1 Total IgG (influenza A/HK/68 [4]): 12,800
- Vaginal Wash Anti-HBsAg Titer^−1 IgA [5]: 400
- Vaginal Wash Anti-HBsAg Titer^−1 IgG [5]: <50
- antibody responses to Hepatitis B surface antigen (in words) [6]: faster and greater antibody responses
- Anti-HBsAg Titer^−1 HBsAg IgG1 [7]: 1024K
- Anti-HBsAg Titer^−1 HBsAg IgG2a [7]: 1024K
- Anti-HBsAg Titer^−1 p72-Peptide IgG1 [7]: 64K
- Anti-HBsAg Titer^−1 p72-Peptide IgG2a [7]: 128K

Substance: N-[(R)-3-Decanoyloxytetradecanoyl]-O-[2-deoxy-4-O-phosphono-2-[(R)-3-decanoyloxytetradecanoylamino]-3-O-[(R)-3-decanoyloxytetradecanoyl]-β-D-glucopyranosyl]-L-serinamide Triethylammonium Salt [B25]
- % Cytotoxicity ([8]; d16, post 2°, E:T 6.25:1): 13%
- % Cytotoxicity ([8]; d16, post 2°, E:T 12.5:1): 20%
- % Cytotoxicity ([8]; d16, post 2°, E:T 25:1): 28%
- % Cytotoxicity ([8]; d16, post 2°, E:T 50:1): 49%
- % Cytotoxicity ([8]; d17, post 1°, E:T 6.25:1): 5%
- % Cytotoxicity ([8]; d17, post 1°, E:T 12.5:1): 9%
- % Cytotoxicity ([8]; d17, post 1°, E:T 25:1): 12%
- % Cytotoxicity ([8]; d17, post 1°, E:T 50:1): 27%
- Anti-ovalbumin IgG1 T/C (ovalbumin): 5.2
- Anti-ovalbumin IgG1 Titer (ovalbumin): 8500
- Anti-ovalbumin IgG2a T/C (ovalbumin): 0.5
- Anti-ovalbumin IgG2a Titer (ovalbumin): 163
- Anti-ovalbumin IgG2b T/C (ovalbumin): 5.0
- Anti-ovalbumin IgG2b Titer (ovalbumin): 1188
- Anti-ovalbumin IgM T/C (ovalbumin): 0.8
- Anti-ovalbumin IgM Titer (ovalbumin): 150
- Anti-ovalbumin Total Ig T/C (ovalbumin): 1.9
- Anti-ovalbumin Total Ig Titer (ovalbumin): 438
- Anti-Tetanus Toxoid Titer^−1 Fecal Extract IgA (tetanus toxoid [2]): 3200 and 6400
- Anti-Tetanus Toxoid Titer^−1 Vaginal Wash IgA (tetanus toxoid [2]): 6400
- Anti HBsAg Titer^−1 IgA [3, 14]: 3,200
- Anti HBsAg Titer^−1 IgG1 [3, 14]: 256K#
- Anti HBsAg Titer^−1 IgG2a [3, 14]: 500K
- Anti HBsAg Titer^−1 IgG1 [3, 15]: 1000K#
- Anti HBsAg Titer^−1 IgG2a [3, 15]: 1000K
- Anti HBsAg Titer^−1 IgA [3, 15]: 25,600
- Percent Protection (influenza A/HK/68 [9]): 100%
- Serum Titers IgG1 (influenza A/HK/68 [9]): 102,400
- Serum Titers IgG2a (influenza A/HK/68 [9]): 819,200
- Serum Titers IgG2b (influenza A/HK/68 [9]): ≧819,200
- Serum Titers Total IgG (influenza A/HK/68 [9]): ≧819,200
- Vaginal Wash Samples IgA Secondary (influenza A/HK/68 [9]): 1280
- Vaginal Wash Samples IgA Tertiary (influenza A/HK/68 [9]): 1280
- Vaginal Wash Samples IgG Secondary (influenza A/HK/68 [9]): 640
- Vaginal Wash Samples IgG Tertiary (influenza A/HK/68 [9]): 2560
- Anti-influenza Titer^−1 IgG1 (influenza A/HK/68 [10]): 1600
- Anti-influenza Titer^−1 IgG2a (influenza A/HK/68 [10]): 6400
- Anti-influenza Titer^−1 IgG2b (influenza A/HK/68 [10]): 1600
- Anti-influenza Titer^−1 Total IgG (influenza A/HK/68 [10]): 3200
- Percent Survival (influenza A/HK/68 [10]): 100%
- Anti-tetanus toxoid IgG1 T/C (tetanus toxoid [11]): 2.68
- Anti-tetanus toxoid IgG1 Titer (tetanus toxoid [11]): 576,000
- Anti-tetanus toxoid IgG2a T/C (tetanus toxoid [11]): 1.67
- Anti-tetanus toxoid IgG2a Titer (tetanus toxoid [11]): 8,500
- Anti-tetanus toxoid IgG2b T/C (tetanus toxoid [11]): 3.28
- Anti-tetanus toxoid IgG2b Titer (tetanus toxoid [11]): 94,400
- Anti-tetanus toxoid IgM T/C (tetanus toxoid [11]): 2.0
- Anti-tetanus toxoid IgM Titer (tetanus toxoid [11]): 3,200
- Anti-tetanus toxoid Total IgG T/C (tetanus toxoid [11]): 8.93
- Anti-tetanus toxoid Total IgG Titer (tetanus toxoid [11]): 57,600
- Vaginal Wash Anti-HBsAg Titer^−1 IgA [5]: 800
- Vaginal Wash Anti-HBsAg Titer^−1 IgG [5]: 100
- % Cytotoxicity (E.G7 (OVA) cells; E:T 12.5:1): 43%
- % Cytotoxicity (E.G7 (OVA) cells; E:T 25:1): 55%
- % Cytotoxicity (E.G7 (OVA) cells; E:T 50:1): 65%
- % Cytotoxicity (d16, post 2°) ([12]; E/T 6.25:1): 9%
- % Cytotoxicity (d8, post 3°) ([12]; E/T 6.25:1): 8%
- % Cytotoxicity (d16, post 2°) ([12]; E/T 12.5:1): 13%
- % Cytotoxicity (d8, post 3°) ([12]; E/T 12.5:1): 13%
- % Cytotoxicity (d16, post 2°) ([12]; E/T 25:1): 20%
- % Cytotoxicity (d8, post 3°) ([12]; E/T 25:1): 19%
- % Cytotoxicity (d16, post 2°) ([12]; E/T 50:1): 36%
- % Cytotoxicity (d8, post 3°) ([12]; E/T 50:1): 30%
- PYROGENICITY Total Rise ° C., 3 rabbits [13]: 4.2 °C
- Anti-HBsAg Titer^−1 HBsAg IgG1 [7]: 2048K*
- Anti-HBsAg Titer^−1 HBsAg IgG2a [7]: 2048K
- Anti-HBsAg Titer^−1 p72-Peptide IgG1 [7]: 128K
- Anti-HBsAg Titer^−1 p72-Peptide IgG2a [7]: 64K
